In ChEMBL document CHEMBL1201862, “PubChem BioAssay data set” (2004):
Blank lines part the entries; values can stand above or below the compound they belong to. The source made the active and inactive calls.

Tests used:
[1] = target: Voltage-dependent T-type calcium channel subunit alpha-1H (Homo sapiens, UniProt O95180); experiment: human CACNA1H calcium influx blockade – cell-based, synthetic library set 1, calcium flux (AID 493022); type: functional
[2] = target: Melanin-concentrating hormone receptor 1 (Homo sapiens, UniProt Q99705); experiment: Late-stage fluorescence-based counterscreen for antagonists of the G-protein coupled receptor 7 (GPR7): cell-based dose response assay to identify antagonists of the melanin-concentrating hormone receptor 1 (MCHR1). [Related pubchem assays (depositor defined):AID1861, AID1880, AID1952, AID2148, AID2251, AID2257, AID485339]; type: functional;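 also: stimulated with 30 nM MCH peptide agonist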
[3] = target: Neuropeptides B/W receptor type 1 (Homo sapiens, UniProt P48145); experiment: human NPBW1 receptor blockade, IC50 – cell-based, fluorescence, dose response, late-stage follow-up (AID 463251); type: functional
[4] = target: T1, Intestinal-type alkaline phosphatase (Mus musculus, UniProt P24822); experiment: PubChem AID 488875; type: functional
[5] = target: T2, Intestinal-type alkaline phosphatase (Homo sapiens, UniProt P09923); experiment: human intestinal alkaline phosphatase activators, dose response, biochemical, luminescence, uHTS hits (AID 463120); type: functional
[6] = target: T2, Intestinal-type alkaline phosphatase; experiment: activation of human intestinal alkaline phosphatase – biochemical, luminescent, uHTS hits, set 2, dose response (AID 488817); type: functional;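 also: potency of activators that raise enzyme activity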
[7] = target: T3, Alkaline phosphatase, tissue-nonspecific isozyme (Homo sapiens, UniProt P05186); experiment: activation of tissue-nonspecific alkaline phosphatase – biochemical, TNAP isozyme, human IAP uHTS hits, selectivity assay for human IAP activator project, dose response (AID 488886); type: functional;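 also: potency of compounds raising TNAP activity as a selectivity check on IAP activators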
T3 sequence (P05186 whole entry): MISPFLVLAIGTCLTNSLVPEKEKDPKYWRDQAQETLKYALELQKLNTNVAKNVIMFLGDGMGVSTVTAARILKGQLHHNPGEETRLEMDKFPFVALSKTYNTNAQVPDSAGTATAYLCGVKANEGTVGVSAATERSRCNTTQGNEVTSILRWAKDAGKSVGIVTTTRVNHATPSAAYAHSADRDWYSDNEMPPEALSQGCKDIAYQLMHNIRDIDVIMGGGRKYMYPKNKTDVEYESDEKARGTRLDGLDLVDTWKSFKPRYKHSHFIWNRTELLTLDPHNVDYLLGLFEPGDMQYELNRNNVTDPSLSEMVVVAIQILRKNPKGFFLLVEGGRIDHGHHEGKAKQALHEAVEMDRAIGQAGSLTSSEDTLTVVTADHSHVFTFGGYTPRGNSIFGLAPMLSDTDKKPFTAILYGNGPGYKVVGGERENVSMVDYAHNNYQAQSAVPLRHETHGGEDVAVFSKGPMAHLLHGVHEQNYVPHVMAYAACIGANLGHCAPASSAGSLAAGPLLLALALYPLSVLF

Leucine aminopeptidase = target: T4, Leucine aminopeptidase (Plasmodium falciparum 3D7, UniProt Q8IL11); experiment: P. falciparum M17LAP inhibitors, primary screen, biochemical, fluorogenic H-Leu-NHMec substrate, 1536-well (AID 1619); type: functional
T4 sequence (Q8IL11 whole entry): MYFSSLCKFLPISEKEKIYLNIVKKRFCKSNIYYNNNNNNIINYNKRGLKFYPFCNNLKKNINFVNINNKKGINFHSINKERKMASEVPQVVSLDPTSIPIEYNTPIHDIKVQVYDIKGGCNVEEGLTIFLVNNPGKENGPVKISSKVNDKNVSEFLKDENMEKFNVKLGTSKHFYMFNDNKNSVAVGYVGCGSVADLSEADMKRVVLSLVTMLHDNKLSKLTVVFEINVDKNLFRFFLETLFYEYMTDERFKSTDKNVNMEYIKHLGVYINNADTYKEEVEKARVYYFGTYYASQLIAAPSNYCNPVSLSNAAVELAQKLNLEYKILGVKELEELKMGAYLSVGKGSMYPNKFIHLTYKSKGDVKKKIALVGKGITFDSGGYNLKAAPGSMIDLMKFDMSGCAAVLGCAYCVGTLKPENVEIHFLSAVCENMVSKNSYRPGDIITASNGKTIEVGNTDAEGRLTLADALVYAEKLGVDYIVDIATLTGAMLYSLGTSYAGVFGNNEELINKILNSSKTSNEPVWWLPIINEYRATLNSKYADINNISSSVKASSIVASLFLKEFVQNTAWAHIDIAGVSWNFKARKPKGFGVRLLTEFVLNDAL

[8] = target: Induced myeloid leukemia cell differentiation protein Mcl-1 (Homo sapiens, UniProt Q07820); type: functional
[9] = target: T5, Scavenger receptor class B member 1 (Mus musculus, UniProt Q61009); experiment: mouse SR-BI DiI-HDL uptake blockers – ldlA[mSR-BI] cells, fluorescence, cherry pick, dose response (AID 493194); type: functional, cell-based;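 also: cellular uptake of fluorescent DiI-labeled HDL measured as cell fluorescence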
T5 sequence (Q61009 whole entry): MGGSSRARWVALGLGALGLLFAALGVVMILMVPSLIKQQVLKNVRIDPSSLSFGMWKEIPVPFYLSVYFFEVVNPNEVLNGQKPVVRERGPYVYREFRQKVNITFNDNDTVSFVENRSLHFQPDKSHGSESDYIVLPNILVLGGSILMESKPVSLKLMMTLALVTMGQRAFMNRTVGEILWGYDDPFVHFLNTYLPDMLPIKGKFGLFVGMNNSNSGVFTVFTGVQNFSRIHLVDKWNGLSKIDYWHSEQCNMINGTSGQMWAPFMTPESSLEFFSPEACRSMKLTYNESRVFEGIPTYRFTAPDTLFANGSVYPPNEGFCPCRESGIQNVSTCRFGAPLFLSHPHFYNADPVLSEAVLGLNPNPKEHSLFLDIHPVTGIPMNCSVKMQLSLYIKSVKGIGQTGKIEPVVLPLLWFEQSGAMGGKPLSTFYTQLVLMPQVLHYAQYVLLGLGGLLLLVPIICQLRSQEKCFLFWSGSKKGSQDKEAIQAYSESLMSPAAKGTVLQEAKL

[10] = target: T1, Intestinal-type alkaline phosphatase; experiment: PubChem AID 488874; type: functional
J774.A1 = experiment: Confirmation of image-based Screening Assay for Inhibitors of Phagocytosis. [Related pubchem assays (depositor defined):AID1029, AID1643]; type: functional, cell-based; details: Mus musculus
[11] = target: T6, Microphthalmia-associated transcription factor (Homo sapiens, UniProt O75030); experiment: MITF Measured in Cell-Based System Using Plate Reader - 2084-01_Inhibitor_DoseNoFile_CherryPick_Activity_Set2. [Related pubchem assays (depositor defined):AID488944]; type: functional
T6 sequence (O75030 whole entry): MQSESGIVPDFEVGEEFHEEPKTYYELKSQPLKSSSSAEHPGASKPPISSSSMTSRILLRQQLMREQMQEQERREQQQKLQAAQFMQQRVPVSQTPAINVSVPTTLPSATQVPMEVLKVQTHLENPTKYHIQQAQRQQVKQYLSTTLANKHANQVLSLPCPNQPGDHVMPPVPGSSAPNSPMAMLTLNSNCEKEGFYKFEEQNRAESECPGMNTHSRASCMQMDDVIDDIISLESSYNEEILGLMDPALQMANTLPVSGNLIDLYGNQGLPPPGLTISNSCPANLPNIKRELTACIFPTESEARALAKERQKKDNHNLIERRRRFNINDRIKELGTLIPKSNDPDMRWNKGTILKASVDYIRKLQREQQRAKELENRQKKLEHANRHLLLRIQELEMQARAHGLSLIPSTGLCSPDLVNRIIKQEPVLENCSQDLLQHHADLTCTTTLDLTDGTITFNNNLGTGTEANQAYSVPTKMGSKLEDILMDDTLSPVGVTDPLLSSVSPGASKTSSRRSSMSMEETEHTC

[12] = target: T6, Microphthalmia-associated transcription factor; experiment: reducers of TRPM1 reporter luminescence, concentration series – cell-based, SK-MEL-5, cherry-picked, set 4, MITF inhibitor project, dose response (AID 493102); type: functional
[13] = target: T6, Microphthalmia-associated transcription factor; experiment: reducers of TRPM1 reporter luminescence, concentration series – cell-based, SK-MEL-5, cherry-picked, set 3, MITF inhibitor project, dose response (AID 493073); type: functional;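 also: SK-MEL-5 melanoma cells with luciferase driven by the MITF target TRPM1 promoter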

T2 sequence (P09923 whole entry): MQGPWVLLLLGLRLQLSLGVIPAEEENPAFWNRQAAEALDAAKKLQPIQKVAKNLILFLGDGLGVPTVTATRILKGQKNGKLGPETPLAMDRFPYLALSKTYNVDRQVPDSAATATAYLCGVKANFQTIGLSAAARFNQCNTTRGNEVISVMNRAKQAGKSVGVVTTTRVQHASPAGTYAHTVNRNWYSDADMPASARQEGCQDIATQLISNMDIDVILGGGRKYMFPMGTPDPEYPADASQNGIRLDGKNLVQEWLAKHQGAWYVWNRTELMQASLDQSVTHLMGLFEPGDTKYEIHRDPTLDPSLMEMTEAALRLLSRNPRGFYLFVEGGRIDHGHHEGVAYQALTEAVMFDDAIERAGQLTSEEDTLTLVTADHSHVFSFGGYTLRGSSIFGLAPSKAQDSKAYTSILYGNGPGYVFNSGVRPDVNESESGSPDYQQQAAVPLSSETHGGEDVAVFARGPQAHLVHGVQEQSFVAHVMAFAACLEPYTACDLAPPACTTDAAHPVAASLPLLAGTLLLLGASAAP
T1 sequence (P24822 whole entry): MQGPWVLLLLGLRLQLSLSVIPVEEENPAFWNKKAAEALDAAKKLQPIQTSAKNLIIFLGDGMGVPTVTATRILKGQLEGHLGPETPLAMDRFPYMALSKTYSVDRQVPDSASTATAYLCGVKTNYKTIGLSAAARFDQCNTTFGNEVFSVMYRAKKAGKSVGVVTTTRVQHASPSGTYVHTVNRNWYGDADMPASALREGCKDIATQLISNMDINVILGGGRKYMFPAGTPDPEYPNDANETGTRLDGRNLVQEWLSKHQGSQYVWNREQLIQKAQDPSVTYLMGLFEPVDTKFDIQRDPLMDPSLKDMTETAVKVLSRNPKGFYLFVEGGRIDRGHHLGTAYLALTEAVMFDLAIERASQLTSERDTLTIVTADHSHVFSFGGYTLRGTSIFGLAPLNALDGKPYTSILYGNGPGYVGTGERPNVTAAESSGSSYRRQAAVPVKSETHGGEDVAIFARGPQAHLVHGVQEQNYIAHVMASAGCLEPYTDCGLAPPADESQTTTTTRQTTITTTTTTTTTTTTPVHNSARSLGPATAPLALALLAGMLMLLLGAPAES
Voltage-dependent T-type calcium channel subunit alpha-1H, sequence (O95180 whole entry): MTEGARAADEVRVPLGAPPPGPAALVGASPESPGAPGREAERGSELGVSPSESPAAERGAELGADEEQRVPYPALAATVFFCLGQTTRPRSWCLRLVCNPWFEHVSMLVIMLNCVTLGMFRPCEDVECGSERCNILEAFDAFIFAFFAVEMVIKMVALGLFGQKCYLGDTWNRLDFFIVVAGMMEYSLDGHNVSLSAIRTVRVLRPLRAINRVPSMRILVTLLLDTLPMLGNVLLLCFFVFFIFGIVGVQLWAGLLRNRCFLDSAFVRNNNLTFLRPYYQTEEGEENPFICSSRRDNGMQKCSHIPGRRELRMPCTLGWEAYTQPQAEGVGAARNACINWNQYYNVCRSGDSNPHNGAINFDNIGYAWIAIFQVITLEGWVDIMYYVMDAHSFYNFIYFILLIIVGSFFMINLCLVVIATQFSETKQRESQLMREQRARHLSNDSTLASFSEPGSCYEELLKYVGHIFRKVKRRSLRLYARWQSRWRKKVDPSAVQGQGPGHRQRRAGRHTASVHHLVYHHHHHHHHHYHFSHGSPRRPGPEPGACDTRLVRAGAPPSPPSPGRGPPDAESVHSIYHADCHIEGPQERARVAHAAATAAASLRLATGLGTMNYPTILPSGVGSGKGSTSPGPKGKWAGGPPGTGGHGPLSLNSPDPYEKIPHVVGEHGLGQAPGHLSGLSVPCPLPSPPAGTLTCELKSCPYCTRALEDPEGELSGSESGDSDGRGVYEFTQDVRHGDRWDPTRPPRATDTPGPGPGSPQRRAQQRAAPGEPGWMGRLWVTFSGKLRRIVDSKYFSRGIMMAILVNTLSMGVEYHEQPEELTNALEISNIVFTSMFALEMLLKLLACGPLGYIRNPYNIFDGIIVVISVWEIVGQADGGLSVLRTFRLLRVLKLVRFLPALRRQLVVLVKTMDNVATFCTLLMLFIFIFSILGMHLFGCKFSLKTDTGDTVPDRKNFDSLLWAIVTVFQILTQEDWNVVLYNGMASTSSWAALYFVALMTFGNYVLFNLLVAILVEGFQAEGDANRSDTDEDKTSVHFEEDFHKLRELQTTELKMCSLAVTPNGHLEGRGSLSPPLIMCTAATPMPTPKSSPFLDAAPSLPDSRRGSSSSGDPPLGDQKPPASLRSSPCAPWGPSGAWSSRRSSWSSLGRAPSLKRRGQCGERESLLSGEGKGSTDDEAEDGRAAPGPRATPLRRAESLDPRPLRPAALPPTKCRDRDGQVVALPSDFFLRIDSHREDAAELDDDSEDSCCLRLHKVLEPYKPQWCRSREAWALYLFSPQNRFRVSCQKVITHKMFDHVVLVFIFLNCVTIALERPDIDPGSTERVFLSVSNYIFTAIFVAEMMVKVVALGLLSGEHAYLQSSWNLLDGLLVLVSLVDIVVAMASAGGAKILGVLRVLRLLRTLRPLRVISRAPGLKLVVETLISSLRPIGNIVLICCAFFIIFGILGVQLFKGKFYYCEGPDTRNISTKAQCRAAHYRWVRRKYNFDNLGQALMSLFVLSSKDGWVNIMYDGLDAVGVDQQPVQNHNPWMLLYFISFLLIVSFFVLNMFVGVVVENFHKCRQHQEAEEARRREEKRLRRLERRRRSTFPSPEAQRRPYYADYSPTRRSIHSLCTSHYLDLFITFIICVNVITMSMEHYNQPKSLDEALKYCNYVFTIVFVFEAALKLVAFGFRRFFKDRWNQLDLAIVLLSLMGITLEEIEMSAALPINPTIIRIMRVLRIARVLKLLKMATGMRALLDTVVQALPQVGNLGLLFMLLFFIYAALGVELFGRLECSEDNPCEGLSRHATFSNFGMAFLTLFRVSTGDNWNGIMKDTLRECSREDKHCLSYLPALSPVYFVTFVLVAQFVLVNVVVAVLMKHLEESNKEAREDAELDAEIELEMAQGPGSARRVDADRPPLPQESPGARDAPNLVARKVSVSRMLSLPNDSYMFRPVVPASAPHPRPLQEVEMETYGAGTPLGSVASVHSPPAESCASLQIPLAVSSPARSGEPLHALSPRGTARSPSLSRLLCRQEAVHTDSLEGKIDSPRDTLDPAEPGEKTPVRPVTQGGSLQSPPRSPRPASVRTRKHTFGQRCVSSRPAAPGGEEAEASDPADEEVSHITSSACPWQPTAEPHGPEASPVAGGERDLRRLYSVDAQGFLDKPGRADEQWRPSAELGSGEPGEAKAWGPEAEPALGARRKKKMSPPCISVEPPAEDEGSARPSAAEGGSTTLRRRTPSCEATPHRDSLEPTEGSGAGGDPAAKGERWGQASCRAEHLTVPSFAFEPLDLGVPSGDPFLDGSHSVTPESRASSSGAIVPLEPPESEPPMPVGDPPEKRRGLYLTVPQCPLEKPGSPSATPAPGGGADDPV
Melanin-concentrating hormone receptor 1, sequence (Q99705 whole entry): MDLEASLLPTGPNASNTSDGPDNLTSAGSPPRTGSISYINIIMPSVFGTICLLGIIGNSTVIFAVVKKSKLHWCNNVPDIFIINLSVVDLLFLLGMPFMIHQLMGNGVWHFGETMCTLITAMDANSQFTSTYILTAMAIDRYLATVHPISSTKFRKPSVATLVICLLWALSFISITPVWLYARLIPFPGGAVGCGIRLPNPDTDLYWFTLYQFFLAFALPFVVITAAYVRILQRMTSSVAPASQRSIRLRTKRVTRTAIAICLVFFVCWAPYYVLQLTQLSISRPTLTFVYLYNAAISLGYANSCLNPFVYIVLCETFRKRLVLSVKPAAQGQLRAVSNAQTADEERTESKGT
Neuropeptides B/W receptor type 1, sequence (P48145 whole entry): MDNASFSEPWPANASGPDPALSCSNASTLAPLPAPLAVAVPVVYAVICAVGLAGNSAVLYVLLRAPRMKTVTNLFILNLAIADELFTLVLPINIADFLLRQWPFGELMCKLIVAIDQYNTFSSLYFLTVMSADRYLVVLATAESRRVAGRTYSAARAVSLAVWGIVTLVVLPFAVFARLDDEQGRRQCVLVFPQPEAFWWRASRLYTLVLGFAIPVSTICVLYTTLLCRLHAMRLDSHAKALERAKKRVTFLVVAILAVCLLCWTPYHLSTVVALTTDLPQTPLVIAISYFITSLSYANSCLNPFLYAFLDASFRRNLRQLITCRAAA
Induced myeloid leukemia cell differentiation protein Mcl-1, sequence (Q07820 whole entry): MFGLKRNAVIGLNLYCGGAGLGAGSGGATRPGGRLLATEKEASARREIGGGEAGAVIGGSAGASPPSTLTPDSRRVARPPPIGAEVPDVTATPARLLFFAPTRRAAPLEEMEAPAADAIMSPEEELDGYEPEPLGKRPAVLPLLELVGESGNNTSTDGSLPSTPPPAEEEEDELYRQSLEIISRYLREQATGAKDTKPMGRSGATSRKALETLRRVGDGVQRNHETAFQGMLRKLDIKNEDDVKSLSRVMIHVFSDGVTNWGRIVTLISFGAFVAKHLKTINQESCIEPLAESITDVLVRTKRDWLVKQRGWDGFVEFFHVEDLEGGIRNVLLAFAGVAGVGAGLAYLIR

Structure (SMILES): CC(Oc1ccccc1)C(=O)Nc1nnc(-c2ccc3c(c2)OCO3)o1 (stereo not drawn)
- EC50 [1]: 10 µM (active)

Structure (SMILES): COc1ccc(Oc2cnn(-c3ccc(C)cc3)c(=O)c2Cl)cc1
- IC50 [2]: 12.6 µM (inactive)
- IC50 [3]: 7 µM (active)

Structure (SMILES): CC(C)Oc1ccc(C(=O)Nc2nnc[nH]2)cc1
- EC50 [4]: > 100 µM (inactive)
- EC50 [5]: 11.4 µM (active)
- EC50 [6]: 33 µM (active)
- EC50 [7]: 22.9 µM (active)

Structure (SMILES): Cc1ccc(Nc2nc(-c3c(C)nc4ccccn34)cs2)cc1
- IC50 (J774.A1): < 0.05 µM (inactive)

More lines, now with the values ahead:

- IC50 (Leucine aminopeptidase): 18 µM (active)
- IC50 [8]: 3.83 µM (active)
- AC50 [9]: 10.9 µM (active)
Structure (SMILES): CC1CCc2c(sc(Nc3nc4c(F)cccc4s3)c2C(N)=O)C1 (stereo not drawn)

- IC50 [10]: 74.2 µM (active)
- EC50 [5]: 12.1 µM (active)
- EC50 [6]: 16.4 µM (active)
- EC50 [7]: 16.4 µM (active)
Structure (SMILES): O=C(NNC(=S)NC(=O)c1ccccc1)c1cccnc1

- AC50 [11]: > 350 µM (inactive)
- AC50 [12]: > 350 µM (inactive)
- AC50 [13]: > 350 µM (inactive)
Structure (SMILES): O=C(COC(=O)C1=COCCO1)Nc1c(F)cccc1F
